Assay results: patent US6706734B2, “Arylpiperidinol and arylpiperidine derivatives and pharmaceuticals containing the same” (Daiichi Suntory Pharma Co., Ltd., priority 1996, dated 2004)

Tests used:
[1] = tested on: DBA/2N type mice; assay: Audiogenic seizure suppressing effect; format: in vivo; details: compound 10 mg/kg, i.p., audio stimulus after 20 minutes, suppression of average seizure score; for inhibition in vivo at 10 mg/kg: Mus musculus, ip, 20 min, read-out: Antiseizure effect (suppression rate %)
Procedure: Audiogenic Seizure Suppressing Effect
The audiogenic seizure suppressing effect of the compounds was evaluated by the method of Sarro et al. [G. B. De Sarro et al., Br. J. Pharmacol., 93, 247 (1988)]. That is, the compound dissolved in 10% 2-hydroxypropyl-β-cyclodextrin was administered intraperitoneally to DBA/2N type mice (male, 3 weeks old). After 20 minutes, a supersonic washer was used to apply audio stimulus of at least 90 dB for one minute. The wild running (WR), clonic seizures (clonus), tonic seizures (tonus), and respiratory arrest (RA) were observed.

[2] = tested on: Sodium channel; assay: Inhibitory effect of veratrizine-induced sodium channel activity (synaptosome membrane potential, Rhodamine 6G); format: biochemical, Wistar rats; details: compound 0.1 μM, rat brain synaptozomes, veratridine-induced depolarization
Procedure: Inhibitory Effect of Veratrizine-induced Sodium Channel Activity
The membrane potential of the synaptozomes prepared from the brain membrane of Wistar rats (male, 10 to 12 weeks old) was measured by the method of Aiuchi et al. (t. Aiuchi et al: Biochimi. Biophys. Acta. 771, 228 (1984)) using a membrane potential sensitive fluorescent dye Rhodamine 6G to evaluate the effects of suppression of the compound on the veratrizine-inducing depolarization response.

[3] = tested on: T-type Ca^2+ channel; assay: T-type calcium channel inhibitory effect (whole-cell patch clamp, hippocampal CA1 pyramidal cells); details: read-out: T-type Ca^2+ channel inhibitory effect IC50; suppression of peak current after one minute of application; rat hippocampal CA1 pyramidal cells
Procedure: T-Type Calcium Channel Inhibitory Effect
The hippocampal CA1 pyramidal cells were isolated from Wistar rats (female, 1 week old) according to the method reported by Takahashi et al. [K. Takahashi et al.; J. Pharmacol. Exp. Ther., 256, 169 (1991)] and the T-type calcium current under conditions of a fixed membrane potential was measured using the whole-cell configration of the patch clamp technique. The effects of the compounds were evaluated from the rate of suppression of the peak current after one minute of application using the concentration clamp method.

Row | Compound | inhibition in vivo at 10 mg/kg [1] [%] | Anti-veratridine effect (inhibiting rate %) [2] [%] | further results
1 | OC(CN1CCC(O)(c2ccc(-c3ccccc3)cc2)CC1)c1ccccc1 (stereo not shown) [Compound 44, 1-(2-hydroxy-2-phenyl)ethyl-4-(4-phenyl)phenyl-4-piperidinol] | 68 |  | 
2 | O=C(CN1CCC(O)(c2ccc(Cc3ccc(F)cc3)cc2)CC1)NC1(c2ccccc2)CC1 [Compound 58, N-(1-phenyl)cyclopropyl-4-hydroxy-4-[4-(4-fluorophenyl)methylphenyl]-1-piperidinacetamide] | 51.7 | 11.3 | 
3 | OC(COc1ccccc1)CN1CCC(O)(c2ccc(-c3ccccc3)cc2)CC1 (stereo not shown) [Compound 41, 1-(2-hydroxy-3-phenoxy)propyl-4-(4-phenyl)phenyl-4-piperidinol] | 92 | 23.7 | 
4 | c1ccc(-c2ccc(C3CCN(CC4CC4c4ccccc4)CC3)cc2)cc1 (stereo not drawn) [Compound 27, 4-(4-phenyl)phenyl-1-(trans-2-phenyl-1-cyclopropylmethyl)piperidine] | 52 | 41 | 
5 | O=C(CN1CCC(O)(c2ccc(Oc3ccccc3)cc2)CC1)c1ccccc1 [Compound 35, 4-(4-phenoxy)phenyl-1-(2-phenyl-2-oxoethyl)-4-piperidinol] | 98 | 27.7 | 
6 | O=C(CN1CCC(O)(c2ccc(-c3ccccc3)c(F)c2)CC1)c1ccccc1 [Compound 20, 4-(3-fluoro-4-phenyl)phenyl-1-(2-phenyl-2-oxoethyl)-4-piperidinol] | 91.3 | 20.2 | IC50 [3]: 3000 nM
7 | O=C(CN1CCC(c2ccc(-c3ccccc3)c(F)c2)CC1)c1ccccc1 [Compound 19, 4-(3-fluoro-4-phenyl)phenyl-1-(2-phenyl-2-oxoethyl)piperidine] | 52 | 12.9 | 
8 | O[C@@H](COc1ccccc1)CN1CCC(O)(c2ccc(Cc3ccc(F)cc3)cc2)CC1 [Compound 48, (R)-4-[4-(4-fluorophenyl)methylphenyl]-1-(2-hydroxy-3-phenoxy)propyl-4-piperidinol] | 82 | 22.7 | 
9 | O[C@@H](COc1ccccc1)CN1CCC(O)(c2ccc(Oc3ccccc3)cc2)CC1 [Compound 46, (R)-4-(4-phenoxy)phenyl-1-(2-hydroxy-3-phenoxy)propyl-4-piperidinol] |  | 19.8 | Antiseizure effect (suppression rate %) [1]: 82%
10 | COc1ccc(C(=O)CN2CCC(O)(c3ccc(-c4ccccc4)c(F)c3)CC2)cc1 [Compound 21, 4-(3-fluoro-4-phenyl)phenyl-1-[2-(4-methoxyphenyl)-2-oxoethyl]-4-piperidinol] | 91.3 | 18.6 | 
11 | O=C(CN1CCC(O)(c2ccc(-c3ccccc3)cc2)CC1)c1ccccc1 [Compound 40, 1-(2-phenyl-2-oxoethyl)-4-(4-phenyl)phenyl-4-piperidinol] | 84 | 23 | 
12 | C(=C\c1ccccc1)/CN1CCC(c2ccc(-c3ccccc3)cc2)CC1 [Compound 22, (E)-4-(4-phenyl)phenyl-1-(3-phenyl-2-propenyl)piperidine] | 72 |  | 
13 | O=C(CN1CCC(O)(c2ccc(Cc3ccc(F)cc3)cc2)CC1)N[C@@H]1C[C@H]1c1ccccc1 (relative stereo) [Compound 54, N-(trans-2-phenyl-1-cyclopropyl)-4-[4-(4-fluorophenyl)methylphenyl]-4-hydroxy-1-piperidinacetamide] | 58 | 20.4 | 
14 | O=C(CN1CCC(c2ccc(-c3ccccc3)c(F)c2)CC1)NC1CC1c1ccccc1 (stereo not drawn) [Compound 31, N-(trans-2-phenyl-1-cyclopropyl)-4-(3-fluoro-4-phenyl)phenyl-1-piperidinacetamide] |  | 14 | 
15 | O=C(CN1CCC(O)(c2ccc(Oc3ccccc3)cc2)CC1)NC1CC1c1ccccc1 (stereo not drawn) [Compound 53, N-(trans-2-phenyl-1-cyclopropyl)-4-hydroxy-4-(4-phenoxy)phenyl-1-piperidinacetamide] | 74 | 32.3 | 
16 | O=C(CN1CCC(O)(c2ccc(Cc3ccc(F)cc3)cc2)CC1)c1ccccc1 [Compound 38, 4-[4-(4-fluorophenyl)methylphenyl]-1-(2-phenyl-2-oxoethyl)-4-piperidinol] | 82 | 18 | 
17 | O[C@H](COc1ccccc1)CN1CCC(O)(c2ccc(Cc3ccc(F)cc3)cc2)CC1 [Compound 47, (S)-4-[4-(4-fluorophenyl)methylphenyl]-1-(2-hydroxy-3-phenoxy)propyl-4-piperidinol] |  |  | Anti-veratridine effect (inhibiting rate %) ([2]; 0.1 µM): 39.5%; Antiseizure effect (suppression rate %) ([1]; 10 mg/kg): 78%

Row | Compound | inhibition in vivo at 10 mg/kg [1] [%] | Anti-veratridine effect (inhibiting rate %) [2] [%] | further results
18 | O=C(CN1CCC(O)(c2ccc(Oc3ccccc3)cc2)CC1)NC1(c2ccccc2)CC1 [Compound 57, N-(1-phenyl)cyclopropyl-4-hydroxy-4-(4-phenoxy)phenyl-1-piperidinacetamide] | 60 | 40.1 | 
19 | OC(COc1ccccc1)CN1CCC(c2ccc(-c3ccccc3)cc2)CC1 (stereo not shown) [Compound 29, 4-(4-phenyl)phenyl-1-(2-hydroxy-3-phenoxy)propylpiperidine] | 68 | 40 | 
20 | OC1(c2ccc(-c3ccccc3)c(F)c2)CCN(CC2(c3ccccc3)CC2)CC1 [Compound 26, 4-(3-fluoro-4-phenyl)phenyl-1-(1-phenyl-1-cyclopropane)methyl-1-piperidinol] |  | 30 | 
21 | Cc1cccc(C)c1NC(=O)CN1CCC(O)(c2ccc(Oc3ccccc3)cc2)CC1 [Compound 55, N-(2,6-dimethylphenyl)-4-hydroxy-4-(4-phenoxy)phenyl-1-piperidinacetamide] | 71.7 | 28.3 | 
22 | OC(COc1ccccc1)CN1CCC(O)(c2ccc(-c3ccccc3)c(F)c2)CC1 (stereo not shown) [Compound 24, 4-(3-fluoro-4-phenyl)phenyl-1-(2-hydroxy-3-phenoxy)propyl-4-piperidinol] | 74 | 23.8 | 
23 | OC1(c2ccc(Cc3ccc(F)cc3)cc2)CCN(C/C=C/c2ccccc2)CC1 [Compound 37, (E)-4-[4-(4-fluorophenyl)methylphenyl]-1-1-(3-phenyl-2-propenyl)-4-piperidinol] | 88 | 39.7 | 
24 | OC(COc1ccccc1)CN1CCC(O)(c2ccc(Oc3ccccc3)cc2)CC1 (stereo not shown) [Compound 36, 4-(4-phenoxy)phenyl-1-(2-hydroxy-3-phenoxy)propyl-4-piperidinol] | 68 |  | Anti-veratridine effect (inhibiting rate %) ([2]; 0.1 µM): 28.6%
25 | OC1(c2ccc(Oc3ccccc3)cc2)CCN(CC2CC2c2ccccc2)CC1 (stereo not drawn) [Compound 50, 4-(4-phenoxy)phenyl-1-(trans-2-phenyl-1-cyclopropylmethyl)-4-piperidinol] | 56 | 33.4 | 
26 | OC1(c2ccc(Oc3ccccc3)cc2)CCN(CC2(c3ccccc3)CC2)CC1 [Compound 49, 4-(4-phenoxy)phenyl-1-(1-phenyl-1-cyclopropane)methyl-4-piperidinol] | 50 | 18.9 | 
27 | c1ccc(-c2ccc(C3CCN(CC4(c5ccccc5)CC4)CC3)cc2)cc1 [Compound 28, 4-(4-phenyl)phenyl-1-(1-phenyl-1-cyclopropane)methylpiperidine] | 56 | 24 | 
28 | O[C@H](COc1ccccc1)CN1CCC(O)(c2ccc(Oc3ccccc3)cc2)CC1 [Compound 45, (S)-4-(4-phenoxy)phenyl-1-(2-hydroxy-3-phenoxy)propyl-4-piperidinol] |  |  | Anti-veratridine effect (inhibiting rate %) ([2]; 0.1 µM): 19.8%; Antiseizure effect (suppression rate %) ([1]; 10 mg/kg): 82%
29 | OC1(c2ccc(-c3ccccc3)cc2)CCN(C/C=C/c2ccccc2)CC1 [Compound 33, (E)-4-(4-phenyl)phenyl-1-(3-phenyl-2-propenyl)-4-piperidinol] |  | 12.8 | 
30 | OC1(c2ccc(-c3ccccc3)c(F)c2)CCN(CC2CC2c2ccccc2)CC1 (stereo not shown) [Compound 32] |  | 27.3 | 
31 | Fc1cc(C2CCN(C/C=C/c3ccccc3)CC2)ccc1-c1ccccc1 [Compound 18, (E)-4-(3-fluoro-4-phenyl)phenyl-1-(3-phenyl-2-propenyl)piperidine] | 62 | 13.1 | 
32 | O=C(CN1CCC(c2ccc(-c3ccccc3)cc2)CC1)c1ccccc1 [Compound 23, 4-(4-phenyl)phenyl-1-(2-phenyl-2-oxoethyl)piperidine] | 84 | 11.3 | 
33 | Fc1cc(C2CCN(CC3CC3c3ccccc3)CC2)ccc1-c1ccccc1 (stereo not drawn) [Compound 25, 4-(3-fluoro-4-phenyl)phenyl-1-(trans-2-phenyl-1-cyclopropylmethyl)piperidine] | 54 | 57 | 
